In US20060069132A1, “Azolecarboxamide herbicides” (priority 2004, published 2006):

How the values were obtained:
[1] = system: barnyardgrass; assay: Test B pre-/postemergence herbicide test; type: in vivo, Echinochloa crus-galli; conditions: for Plant response rating (0 to 100 scale), Barnyardgrass: 0 is no effect, preemergence
How it was run: (§1)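 Test chemicals in a non-phytotoxic solvent mixture with surfactant were applied preemergence to seeded species and postemergence to plants 2-18 cm tall (1- to 4-leaf stage); rice and barnyardgrass were also tested in a flooded paddy at the 2-leaf stage. Visual rating versus controls after 13-15 days in greenhouse, scale 0 (no effect) to 100 (complete control).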

[2] = system: Surinam grass; assay: Test B pre-/postemergence herbicide test; type: in vivo, Urochloa decumbens; conditions: for Plant response rating (0 to 100 scale), Surinam Grass: 0 is no effect, 100 is complete control, preemergence
How it was run: (§2)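 Plants compared with untreated controls 13–15 days post-treatment and given a visual 0–100 injury score. Applications: preemergence to seeds; postemergence at 1- to 4-leaf (2–18 cm); paddy species flooded, 2-leaf stage. Vehicle non-phytotoxic, surfactant included.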

[3] = system: cocklebur; assay: Test B pre-/postemergence herbicide test; type: in vivo, Xanthium strumarium; conditions: for Plant response rating (0 to 100 scale), Cocklebur: 0 is no effect, preemergence
How it was run: as §1

[4] = system: corn; assay: Test B pre-/postemergence herbicide test; type: in vivo, Zea mays; conditions: for Plant response rating (0 to 100 scale), Corn: 0 is no effect, preemergence
How it was run: as §2

[5] = system: large crabgrass; assay: Test B pre-/postemergence herbicide test; type: in vivo, Digitaria sanguinalis; conditions: for Plant response rating (0 to 100 scale), Crabgrass, Large: 0 is no effect, preemergence
How it was run: as §2

[6] = system: giant foxtail; assay: Test B pre-/postemergence herbicide test; type: in vivo, Setaria faberi; conditions: for Plant response rating (0 to 100 scale), Foxtail, Giant: 0 is no effect, preemergence
How it was run: as §2

[7] = system: morningglory; assay: Test B pre-/postemergence herbicide test; type: in vivo, Ipomoea coccinea; conditions: for Plant response rating (0 to 100 scale), Morningglory: 0 is no effect, 100 is complete control, preemergence
How it was run: as §1

[8] = system: pigweed; assay: Test B pre-/postemergence herbicide test; type: in vivo, Amaranthus retroflexus; conditions: for Plant response rating (0 to 100 scale), Pigweed: 0 is no effect, 100 is complete control, preemergence
How it was run: as §2

[9] = system: velvetleaf; assay: Test B pre-/postemergence herbicide test; type: in vivo, Abutilon theophrasti; conditions: for Plant response rating (0 to 100 scale), Velvetleaf: 0 is no effect, 100 is complete control, preemergence
How it was run: as §2

[10] = system: blackgrass; assay: Test B postemergence herbicide test; type: in vivo, Alopecurus myosuroides
How it was run: (§3)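 Paddy species grown to the 2-leaf stage under flooding; blackgrass sprayed postemergence at 2–18 cm (1- to 4-leaf stage). Plants kept in a greenhouse for 13 to 15 days, then visually rated against controls on 0 (no effect) to 100 (complete control).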

[11] = system: wheat; assay: Test B postemergence herbicide test; type: in vivo, Triticum aestivum; parameters: key to Wheat plant response rating: 0 = no effect, 100 = complete control
How it was run: (§4)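 Read-out: visual comparison with controls, scored 0 to 100, where 100 means complete control and 0 no effect. Formulated chemicals were applied postemergence to plants 2–18 cm tall (1- to 4-leaf), or to flooded-paddy plants at the 2-leaf stage, then held 13 to 15 days under glass.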

[12] = system: wild oat; assay: Test B postemergence herbicide test; type: in vivo, Avena fatua
How it was run: as §4

[13] = system: rice; assay: Test B flooded paddy test; type: in vivo, Oryza sativa; conditions: 1000 g ai/ha, scale 0 to 100 (0 no effect, 100 complete control)
How it was run: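 Formulated test chemicals went onto postemergence plants measuring 2 to 18 cm, at one to four leaves. For the paddy assay, species had reached two leaves. Scoring took place 13–15 days later by eye, relative to untreated plants, using 0 for no effect up to 100 for full control.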

[14] = system: small flower umbrella sedge; assay: Test B flooded paddy test; type: in vivo, Cyperus difformis; conditions: 1000 g ai/ha, scale 0 to 100 (0 no effect, 100 complete control)
How it was run: as §3

[15] = system: ducksalad; assay: Test B flooded paddy test; type: in vivo, Heteranthera limosa; conditions: 1000 g ai/ha, scale 0 to 100 (0 no effect, 100 complete control)
How it was run: as §3

[16] = 125 g ai/ha, 100 is complete control
[17] = Postemergence, 500 g ai/ha, scale 0 (no effect) to 100 (complete control)
[18] = postemergence, 125 g ai/ha, scale 0 to 100
[19] = 500 g ai/ha, scale 0 to 100, 0 no effect, 100 complete control, preemergence
[20] = 125 g ai/ha, visual rating, scale 0 (no effect) to 100 (complete control), postemergence
[21] = postemergence, 500 g ai/ha, scale 0 to 100, 0 is no effect, 100 is complete control

Row | Structure (SMILES) | Plant response rating (0 to 100 scale), Barnyardgrass [1, 16] | Plant response rating (0 to 100 scale), Surinam Grass ([2]; 125 g ai/ha) | Surinam Grass plant response rating [2, 17] | Plant response rating (0 to 100 scale), Cocklebur [3, 16] | Plant response rating (0 to 100 scale), Corn [4, 16] | Plant response rating (0 to 100 scale), Crabgrass, Large [5, 16] | Plant response rating (0 to 100 scale), Foxtail, Giant [6, 16] | Plant response rating (0 to 100 scale), Morningglory ([7]; 125 g ai/ha) | Morningglory plant response rating [7, 17] | Plant response rating (0 to 100 scale), Pigweed ([8]; 125 g ai/ha) | Pigweed plant response rating [8, 17] | Plant response rating (0 to 100 scale), Velvetleaf ([9]; 125 g ai/ha) | Velvetleaf plant response rating [9, 17] | Wheat plant response rating [11, 19] | Wheat plant response rating [11, 17] | Oat, Wild plant response rating [12, 17] | Rice plant response rating [13] | Sedge, Umbrella plant response rating [14] | Ducksalad plant response rating [15] | further results
1 | CCn1nc(C(C)(C)C)cc1C(=O)Nc1cccc(OS(=O)(=O)CC)c1 [Compound 408] | 70 | 30 | 30 | 0 | 10 | 90 | 40 | 20 | 30 | 100 | 100 | 50 | 70 | 80 | 30 | 50 | 80 | 90 | 90 | Barnyardgrass plant response rating ([1]; Postemergence, 125 g ai/ha, scale 0 (no effect) to 100 (complete control)): 20; Barnyardgrass plant response rating [1, 17]: 40; Surinam Grass plant response rating [2, 18]: 20; Cocklebur plant response rating [3, 17]: 70; Cocklebur plant response rating [3, 18]: 60; Corn plant response rating [4, 17]: 10; Corn plant response rating [4, 18]: 10; Crabgrass, Large plant response rating [5, 17]: 50; Crabgrass, Large plant response rating [5, 18]: 30; Foxtail, Giant plant response rating [6, 17]: 50; Foxtail, Giant plant response rating [6, 18]: 30; Morningglory plant response rating [7, 18]: 10; Pigweed plant response rating [8, 18]: 90; Velvetleaf plant response rating [9, 18]: 30; Blackgrass plant response rating [10, 17]: 80; Blackgrass plant response rating [10, 18]: 40; Wheat plant response rating [11, 18]: 20; Oat, Wild plant response rating [12, 18]: 30
2 | CCc1nn(C(C)C)nc1C(=O)Nc1cccc(C(=O)N2CCCCC2)c1 [Compound 385] | 80 | 80 | 20 | 0 | 30 | 90 | 30 | 20 | 80 | 70 | 60 | 60 | 20 | 80 | 10 | 20 | 80 | 80 | 80 | Barnyardgrass plant response rating [1, 20]: 0; Barnyardgrass plant response rating [1, 21]: 10; Surinam Grass plant response rating [2, 20]: 0; Cocklebur plant response rating [3, 20]: 20; Cocklebur plant response rating [3, 21]: 50; Corn plant response rating [4, 20]: 10; Corn plant response rating [4, 21]: 10; Crabgrass, Large plant response rating [5, 20]: 0; Crabgrass, Large plant response rating [5, 21]: 20; Foxtail, Giant plant response rating [6, 20]: 10; Foxtail, Giant plant response rating [6, 21]: 20; Morningglory plant response rating [7, 20]: 30; Pigweed plant response rating [8, 20]: 50; Velvetleaf plant response rating [9, 20]: 20; Blackgrass plant response rating [10, 20]: 10; Blackgrass plant response rating [10, 21]: 30; Wheat plant response rating [11, 20]: 0; Oat, Wild plant response rating [12, 20]: 0
